From patent publication US20210371413A1, “POLYCYCLIC AMIDES AS CYTOTOXIC AGENTS” (FEMTOGENIX LIMITED, priority 2018, published 2021)
Converted amounts (≈) assume the structure as drawn.

Assays:
Format in all cases: cell-based
SW48 = assay: In vitro cell-killing, MTT assay, SW48; settings: Homo sapiens, SW48, 72 h, read-out: In vitro cell-killing (IC50), Cytotoxicity (72 hours)
Method: Tumor cell lines were maintained in RPMI1640 medium supplemented with 10% heat-inactivated fetal bovine serum, 2 mM L-glutamine and 1 mM sodium pyruvate. 1800 cells per well were seeded in a volume of 180 μl in a 96-well flat bottom polystyrene plate. The cells were allowed to adhere overnight at 37° C. in a CO2 incubator. Ligands were initially formulated in DMSO, and stocks stored at −80° C. They were then further formulated at lox concentration in RPMI1640 medium. 20 ul of diluted samples were added into each treatment well. On each plate, blank wells with no cells, and untreated wells containing cells, were included. Plates were then cultured at 37° C. in a CO2 incubator for 72 hrs. Cytotoxicity was evaluated using a tetrazolium salt-based assay, the MTT assay. After 72 hours, the supernatant was removed from each well and 200 μl of a sterile filtered 500 μg/ml MTT solution in water added to each well. […] The plate was then read on a plate reader at 540 nm, and percentage cell survival calculated as follows: ((mean absorbance treated wells at concentration x−mean absorbance blank wells)+(mean absorbance untreated wells at concentration x−mean absorbance blank wells))×100. Data were plotted as concentration in nM vs. % cell survival in Microsoft Excel, and IC50 values (concentration where cell survival is reduced by a half) were determined from the graph.

U138-MG (Glioblastoma) = assay: In vitro cytotoxicity, MTT assay, U138-MG; settings: Homo sapiens, U138-MG, 72 h, read-out: Cytotoxicity
Method: (§1) The in vitro cytotoxicity of a selection of compounds were evaluated in a panel of cell lines using the standard MTT assay for a 72 hour incubation period (Table 2). Free payloads produced cytotoxicities in the nanomolar range.
(§2) Tumor cell lines were maintained in RPMI1640 medium supplemented with 10% heat-inactivated fetal bovine serum, 2 mM L-glutamine and 1 mM sodium pyruvate. 1800 cells per well were seeded in a volume of 180 μl in a 96-well flat bottom polystyrene plate. The cells were allowed to adhere overnight at 37° C. in a CO2 incubator. Ligands were initially formulated in DMSO, and stocks stored at −80° C. They were then further formulated at lox concentration in RPMI1640 medium. 20 ul of diluted samples were added into each treatment well. On each plate, blank wells with no cells, and untreated wells containing cells, were included. Plates were then cultured at 37° C. in a CO2 incubator for 72 hrs. Cytotoxicity was evaluated using a tetrazolium salt-based assay, the MTT assay. After 72 hours, the supernatant was removed from each well and 200 μl of a sterile filtered 500 μg/ml MTT solution in water added to each well. The plates were then incubated at 37° C. in a CO2 incubator for 4 hrs. The supernatant was then removed and the formazan crystals formed solubilized by adding 150 μl of DMSO to each well. The plate was then read on a plate reader at 540 nm, and percentage cell survival calculated as follows: ((mean absorbance treated wells at concentration x−mean absorbance blank wells)+(mean absorbance untreated wells at concentration x−mean absorbance blank wells))×100. Data were plotted as concentration in nM vs. % cell survival in Microsoft Excel, and IC50 values (concentration where cell survival is reduced by a half) were determined from the graph.

REH (ALL) = assay: In vitro cytotoxicity, MTT assay, REH; settings: 72 h, read-out: Cytotoxicity
Method: as §1, §2

E. coli K12 = assay: MIC assay, E. coli K12; settings: overnight (16-20 hour) incubation
Method: (§3) The antimicrobial activity of a selection of compounds were evaluated in a Gram-negative, Gram-positive and multi-resistant bacteria using the standard minimum inhibitory concentration (MIC) assay for an overnight (16-20 hour) incubation period. Commercially marketed antibiotics (Table 3) were used as positive controls during the study.
(§4) Mueller-Hinton broth (MH Broth) (Sigma-Aldrich; Millipore, cat. no. 70192) and Mueller-Hinton agar (MHA) (Sigma-Aldrich; Millipore, cat. no. 70191) were prepared as per manufacturer's instructions and sterilized by autoclaving. Approximately 20 mL of MHA was poured onto 15×100 mm petri dishes and allowed to set. Agar plates were then stored in plastic bags in an inverted position at 4° C.
(§5) Bacterial strains were provided in the form of a glycerol stock, stored at −80° C. For the purpose of preparation of bacterial suspension, appropriate strains were removed from −80° C. storage onto dry ice and not allowed to freeze-thaw.
(§6) Stock solutions of 16, 45 and 73 were provided in DMSO at 1.28 mg/mL concentration. From this stock solution, working solutions of the desired concentration were prepared by diluting with MHB.
(§7) MIC assay methodology was adapted from previously published work.
(§8) Bacterial isolate to be tested was streaked onto a nutrient-rich MH agar plate and incubated overnight at 37° C. in order to obtain single colonies.
(§9) After overnight incubation, single colonies with the same morphological appearance were chosen from the agar plate. These were touched using a sterile loop and transferred into a tube containing 10 mL of a MH broth. They were then mixed using vortex mixer and incubated at 35-37° C. in a shaker at 200 r.p.m. overnight.
(§10) Determination of OD600 and cfu/mL count OD600 (the optical density of a sample measured at a wavelength of 600 nm) of the overnight culture was measured. Because of the loss of linearity at OD600 values […], it was necessary to dilute the sample until the OD600 value was below 1.0. For all tested bacteria, a dilution of 1:10 was appropriate (100 μL in 900 μL broth).
(§11) The overnight culture was then diluted 1:100 using sterile tubes and MH broth (dilution: 10^−2). Serial dilution was then performed six times until dilution of 10^−8 was reached. 100 μL of dilutions 10^−7 and 10^−8 were plated onto MH agar plates in triplicate using a sterile cell spreader and incubated overnight at 37° C.
(§12) After overnight incubation, colonies on plates were counted and cfu per mL calculated. The following formula was applied: […]
For the generation of overnight cultures to be used for preparation of the bacterial suspension for MIC tests, a single colony of bacteria was selected using a sterile loop and a sterile tube with MH broth was inoculated followed by overnight incubation at […] in a shaker set to 200 r.p.m.
After overnight incubation, the OD600 was measured and the overnight culture was diluted accordingly to obtain 1×10^8 cfu/mL.
Free payload dilutions were prepared as per Table 4.
96-well sterile microtiter plates were used for MIC assay. The plate was filled with the respective free payload or positive control antibiotic concentrations in triplicate. 100 μL of broth was pipetted in the sterility control well (SC, column 12) and 50 μL in the growth control well (GC, column 11).
1×10^8 cfu/mL bacterial suspension was diluted 1:100 and 50 μL added to each well apart from SC. […]
(§13) The 96-well plates were read using a SpectraMax plate reader at an absorbance of 600 nm. […]

EMRSA 16 = assay: MIC assay, EMRSA 16; settings: Staphylococcus aureus
Method: as §3, §4, §5, §6, §7, §8, §9, §10, §11, §12
After overnight incubation, the OD600 was measured and the overnight culture was diluted accordingly to obtain 1×10^8 cfu/mL. […]
as §13

With `COc1cc2c(cc1OCCCC(=O)Nc1cc(C(=O)Nc3ccc(-c4cc(C(=O)Nc5ccc(N)cc5)n(C)c4)cc3)n(C)c1)NC[C@@H]1CCCCN1C2=O` [Compound 16, (S)—N-(4-Aminophenyl)-4-(4-(4-(4-((2-methoxy-12-oxo-5,6,6a,7,8,9,10,12-octahydrobenzo[e]pyrido[1,2-a][1,4]diazepin-3-yl)oxy)butanamido)-1-methyl-1H-pyrrole-2-carboxamido)phenyl)-1-methyl-1H-pyrrole-2-carboxamide] the IC50 (SW48) was 77 nM, the IC50 (U138-MG (Glioblastoma)) was 184 nM and the IC50 (REH (ALL)) was 146 nM. It also gave an MIC (E. coli K12; E. coli K12 (Gram-negative)) of 2 to 4 µg/mL, an MIC (E. coli K12; Escherichia coli, K12, E. coli K12 (Gram-negative)) of 2 µg/mL (≈ 2.64 µM) and an MIC (EMRSA 16) of 0.25 to 0.5 µg/mL (≈ 0.329 to 0.659 µM).
